As usually defined, the IC50 is the concentration that inhibits the measured activity by half.

The subject of one experiment is IL-1β. Description: LPS-induced IL-1β in the serum of mice. In kind it is in vivo, C57BL mice. As to conditions: LPS dose 1.0 ip; 30 mg/kg ip 2 h before LPS; vehicle 300 ± 87; N = 8. As to the method: Sixty female C57BL mice (4-6 weeks old) were divided into six groups, each with 10 animals. Three groups (1,3,5) received vehicle only (PBS containing 0.1% TEA (tetraethyl ammonium hydrochloride)), 200 μl/mouse via intraperitoneal (ip) administration. The other three groups (2,4,6) received Compound A (30 mg/kg in 200 μl, ip) of vehicle (PBS containing 10% of the ethyl ester of 12-hydroxystearic acid; solutol). Two hours later, the animals received by ip administration, 0.1 mg/kg of LPS (groups 1 & 2), 0.5 mg/kg of LPS (groups 3 & 4), and 1.0 mg/kg of LPS (groups 5 % 6). Two hours after LPS administration, all of the animals were sacrificed, and plasma samples were obtained and assayed for their […] and IL-1β content. Assays were carried out as described in Example 8.
The numbers in are the group numbers as described above. N indicates the number of animals from which plasma measurements where made. ND=not done.

In experiment [1] the test system is GABA-ergic neurons in the nucleus basalis magnocellularis. Description: Ibotenic acid lesion: glutamic acid decarboxylase-expressing (GABA-ergic) neurons in nbm. Type of experiment: in vivo, Sprague-Dawley rats. As to the method:
Compound A was tested for its ability to prevent depletion (e.g., enhance the survival) of GABA-ergic neurons in the nucleus basalis magnocellularis, using the well-established ibotenic acid lesion mode. Ibotenic acid, an excitotoxin, is known to reduce numbers of GABA-expressing neurons in the nbm region (Lindefors et al., Neurosci. Lett., 135:262-264, 1992; Shaugnessy et al., Brain Res., 637:15-26, 1994). […] The rats were then dosed with Compound A (0.03 mg/kg) via subcutaneous injection beginning 18 hours after the lesion, and continuing q.o.d. until 18 days post-lesion. […] The numbers of neurons expressing glutamic acid decarboxylase were then counted throughout the rostral-caudal extent of the nucleus basalis magnocellularis, in a region where glutamic acid decarboxylase-expressing neurons of the nbm are easily distinguished from glutamic acid decarboxylase-expressing neurons in adjacent structures (white matter medial and ventral to the globus pallidus). The results were expressed as percent glutamic acid decarboxylase-expressing neurons on the lesioned side relative to the number on the opposite, unlesioned side. The results were also calculated separately for the rostral nbm, mid-nmb, and caudal nbm.

Another experiment concerns protein kinase C. Nature of the experiment: Protein kinase C inhibition in vitro. Type of experiment: biochemical.
The test system of experiment [2] is striatal tyrosine hydroxylase (dopaminergic neurons). Description: Striatal tyrosine hydroxylase activity in low-dose MPTP-treated mice. In kind it is in vivo, C57 black mice. As to conditions: MPTP 20 mg/kg, 7 days. The protocol: Experiments were conducted using Compound A in MPTP-lesioned dopaminergic neurons in mice (MPTP mouse model). A single s.c. dose of MPTP (20 mg/kg) provided to C57 black mice produced approximately 60% loss of striatal tyrosine hydroxylase activity. Administration of Compound A, at daily doses ranging from 0.01 to 10 mg/kg (s.c.), to such MPTP-treated mice reduced the loss of striatal tyrosine hydroxylase activity.
Mice were treated with MPTP (20 mg/kg; s.c.) 4-6 hours after the first Compound A injection. Compound A was then injected every day until the end of the experiment, which was 7 days in duration. Striata were assessed for tyrosine hydroxylase enzyme activity. Asterisk indicates statistically significant difference (p<0.05) from MPTP-Vehicle treated animals.

In experiment [3] the test system is acrylamide-induced peripheral neuropathy. Nature of the experiment: Acrylamide-induced peripheral neuropathy, landing foot spread. In kind it is in vivo, Sprague-Dawley rats. As to conditions: 0.3 mg/kg/day s.c.; acrylamide 50 mg/kg IP three times/week for three weeks (FIG. 5). The source says:
Acrylamide produces a "dying back" central-peripheral distal neuropathy in humans and animals. The lesion is a mixed sensory/motor neuropathy characterized by weakness, tremor and ataxia in humans. In animals, acrylamide produces changes in behavior (sensory, motor and proprioceptive), histopathology, electrophysiology and weight loss. In the periphery, large diameter, long axon, Ab fibers are preferentially affected by acrylamide. In rats, acrylamide administration produces an axonopathy as measured by increased landing foot spread (LFS), a measure of proprioception.
It differs from other chemically-induced models (such as chemotherapeutic models) in that the duration is relatively short (3 weeks) and the animals are in relatively good health.
Male Sprague-Dawley rats weighing 250 grams at the start of the experiment were used. Acrylamide (50 mg/kg, IP) was administered three times/week for three weeks. The animals were dropped from a height of 30 cm and the distance between the hindfeet was recorded (Edwards, P. M. and Parker, V. H. (1977) "A simple, sensitive, and objective method for early assessment of acrylamide neuropathy in rats." Toxicol. Appl Pharmacol, 40:589-591). Compound A (0.1, 0.3 or 1.0 mg/kg, s.c. in 5% solutol) was administered once daily for the duration of the experiment.

On to `CCSCc1ccc2c(c1)c1c3c(c4c5cc(CSCC)ccc5n5c4c1n2C1CC(O)(C(=O)OC)C5(C)O1)CNC3=O` (stereo not shown) [Compound A], for which the IL-1β with IL-1β stood at 59 ± 19 pg/mL. Moreover, the “glutamic acid decarboxylase-expressing neurons vs vehicle-only animals” value in experiment [1] (mid-nbm or caudal nbm, 0.03 mg/kg s.c. q.o.d.) was “No statistically significant differences”. Moreover, the “glutamic acid decarboxylase-expressing neurons on lesioned side relative to unlesioned side” value in experiment [1] (rostral nbm, 0.03 mg/kg s.c. q.o.d. until 18 days post-lesion, mean, s.e.m., p<0.05 vs vehicle (34 ± 19)) is recorded as 78 (±16 s.c.m.) percent. Besides, in the experiment on protein kinase C (at 139 nM and 261 nM), the “protein kinase C inhibition at concentrations inhibiting TNF-α and IL-1β production” value was “inactive”. Further, in the experiment with protein kinase C (compared with K-252a), the “fold less active than K-252a against protein kinase C” value came out at 570 fold. Besides, at protein kinase C (in vitro), half-maximal inhibition (IC50) required 16 µM. The “inhibitory activity against PKC” value with protein kinase C (summary statement) was “little or no inhibitory activity against PKC”. The “% of Unlesioned Control” value worked out at 41 ± 5.3% in experiment [2] (0.01 mg/kg s.c. daily); 55 ± 3.9% in experiment [2] (0.03 mg/kg s.c. daily); 60 ± 6.5% in experiment [2] (0.10 mg/kg s.c. daily); 62 ± 5.0% in experiment [2] (0.30 mg/kg s.c. daily); 54 ± 7.0% in experiment [2] (1.0 mg/kg s.c. daily); 51 ± 5.8% in experiment [2] (3.0 mg/kg s.c. daily). In addition, the “% of Unlesioned Control” value in experiment [2] (10.0 mg/kg s.c. daily) is 51 ± 3.7%. Further, the “Striatal TH Activity (± SEM)” value turned out to be 7.76 ± 1.23 in experiment [2] (0.01 mg/kg s.c. daily); 10.48 ± 0.92 in experiment [2] (0.03 mg/kg s.c. daily); 11.51 ± 0.80 in experiment [2] (0.10 mg/kg s.c. daily); 11.89 ± 1.34 in experiment [2] (0.30 mg/kg s.c. daily); 10.39 ± 1.39 in experiment [2] (1.0 mg/kg s.c. daily); 9.66 ± 1.10 in experiment [2] (3.0 mg/kg s.c. daily). Moreover, in experiment [2] (10.0 mg/kg s.c. daily), the “Striatal TH Activity (± SEM)” value amounted to 9.77 ± 0.70. Besides, in experiment [3], the “increase in landing foot spread (LFS) produced by acrylamide” value is reported as “reduced the magnitude of the increase in LFS”.

The values are drawn from US6184217A (Cephalon, Inc., priority 1997, dated 2001).
